Literature values in PMC6738313 (The Oncologist, 2019).
Values belong to the compound of their own block, whether it stands above or below them.

Columns and labels:
[1] = system: patients with metastatic renal cell carcinoma
CYP3A4/5 = settings: clinical data
[2] = system: first-line poor- or intermediate-risk patients with mRCC; settings: CABOSUN

Metabolic pathway (CYP3A4/5): primarily metabolized by CYP3A4/5
SMILES: CNC(=O)c1ccccc1Sc1ccc2c(/C=C/c3ccccn3)n[nH]c2c1 [Axitinib]
Progression-free survival (PFS) ([1]; axitinib single agent, first-line therapy, 95% CI 7.2–12.1): 10.1 months
Objective response rate (ORR) ([1]; single-agent axitinib, first-line mRCC, phase III trial versus sorafenib): 32%

SMILES: COc1cc2nccc(Oc3ccc(NC(=O)C4(C(=O)Nc5ccc(F)cc5)CC4)cc3)c2cc1OC [cabozantinib]
Estimated progression-free survival (PFS) ([2]; 95% CI 6.2–8.8): 8.2 months
Objective response rate (ORR) ([2]; first-line poor- or intermediate-risk patients with mRCC): 46%

SMILES: C[C@@H](Oc1cc(-c2cnn(C3CCNCC3)c2)cnc1N)c1c(Cl)ccc(F)c1Cl [crizotinib, Crizotinib]
CYP3A4/5 inhibition (classification) (CYP3A4/5): moderate time‐dependent CYP3A4/5 inhibitor
